Laboratory results published in ChEMBL document CHEMBL1201862, “PubChem BioAssay data set” (2004).
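Dose response: 5 concentrations. Exposure: 48 h. Format: 96-well plates. Endpoint: linear interpolation; highest concentration if not reached. At the GI50, growth is halved.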 Calls of active or inactive are those of the source. Rule as the data show it: active = GI50 up to about 1.1 µM and inactive = higher.

What was measured:
Assay in all cases: DTP human tumour cell line panel, 48 h
KM12 = system: KM12
DU-145 = system: DU-145
MDA-MB-231 = system: MDA-MB-231
COLO 205 = system: COLO 205
OVCAR-8 = system: OVCAR-8
SF-539 = system: SF-539
MOLT-4 = system: MOLT-4
NCI-H226 = system: NCI-H226
A549 = system: A549
SK-MEL-2 = system: SK-MEL-2
NCI-H23 = system: NCI-H23
U-251 = system: U-251
SNB-19 = system: SNB-19
SN12C = system: SN12C
SK-MEL-28 = system: SK-MEL-28
SF-268 = system: SF-268
ACHN = system: ACHN
OVCAR-5 = system: OVCAR-5
MDA-MB-435 = system: MDA-MB-435

Measured: GI50

O=C1CCCc2cc3c(cc21)CCC3C(=O)O (centres undefined)
inactive: KM12 > 100 µM | DU-145 > 100 µM | MDA-MB-231 > 100 µM | COLO 205 > 100 µM | OVCAR-8 > 100 µM | SF-539 > 100 µM | MOLT-4 > 100 µM | NCI-H226 > 100 µM | A549 > 100 µM | SK-MEL-2 > 100 µM | NCI-H23 > 100 µM | U-251 > 100 µM | SNB-19 > 100 µM | SN12C > 100 µM | SK-MEL-28 > 100 µM | SF-268 > 100 µM | ACHN > 100 µM | OVCAR-5 > 100 µM

O=[N+]([O-])c1ccc2c(c1)nc1n2C(c2c(F)cccc2F)SC1 (centres undefined)
inactive: KM12 > 100 µM | DU-145 > 100 µM | MDA-MB-231 > 100 µM | COLO 205 > 100 µM | OVCAR-8 > 100 µM | SF-539 > 100 µM | MOLT-4 > 100 µM | A549 > 100 µM | SK-MEL-2 > 100 µM | NCI-H23 > 100 µM | U-251 > 74.1 µM | MDA-MB-435 > 100 µM | SNB-19 > 100 µM | SN12C > 100 µM | SK-MEL-28 > 100 µM | SF-268 > 100 µM | ACHN > 100 µM | OVCAR-5 > 100 µM

COc1c(-c2nc3ccc(N4CCN(C)CC4)nc3[nH]2)cc(OC)c2c1nc(COC(C)=O)n2C
inactive: KM12 39.4 µM | DU-145 22.6 µM | MDA-MB-231 51.3 µM | COLO 205 92.7 µM | OVCAR-8 > 100 µM | MOLT-4 > 100 µM | NCI-H226 > 100 µM | A549 > 100 µM | SK-MEL-2 33 µM | NCI-H23 > 100 µM | U-251 97.1 µM | MDA-MB-435 71.8 µM | SNB-19 90.2 µM | SN12C > 100 µM | SF-268 > 100 µM | ACHN > 100 µM | OVCAR-5 > 100 µM

CC1CNC(c2ccc(CN3CCC(C4CCN(Cc5ccc(C6=NC(C)CN6)cc5)CC4)CC3)cc2)=N1 (centres undefined)
inactive: KM12 15.7 µM | DU-145 16.2 µM | MDA-MB-231 17.7 µM | COLO 205 18.6 µM | OVCAR-8 29.6 µM | SF-539 20.3 µM | MOLT-4 19.7 µM | A549 20.6 µM | SK-MEL-2 19.1 µM | NCI-H23 28 µM | U-251 16 µM | MDA-MB-435 20.8 µM | SNB-19 26.1 µM | SN12C 20.1 µM | SK-MEL-28 32.6 µM | SF-268 22.4 µM | ACHN 26.5 µM | OVCAR-5 24.9 µM

CC1=C(C(=O)CC(=O)C(=O)Nc2ccccc2C)Sc2ccccc2N1
inactive: KM12 > 100 µM | COLO 205 > 42.7 µM | OVCAR-8 > 100 µM | SF-539 > 93.3 µM | MOLT-4 > 100 µM | NCI-H226 > 100 µM | A549 > 69.3 µM | SK-MEL-2 > 100 µM | NCI-H23 > 100 µM | U-251 > 61.2 µM | SNB-19 > 100 µM | SN12C > 100 µM | SK-MEL-28 > 100 µM | SF-268 > 67 µM | ACHN > 100 µM | OVCAR-5 > 100 µM

Cc1ccc(S(=O)(=O)Nn2c(O)c(C#N)c(-c3ccc(N(C)C)cc3)c(C#N)c2=O)cc1
inactive: KM12 > 50 µM | MDA-MB-231 > 50 µM | COLO 205 > 50 µM | OVCAR-8 > 50 µM | SF-539 > 50 µM | MOLT-4 > 50 µM | NCI-H226 > 50 µM | A549 > 50 µM | SK-MEL-2 > 50 µM | U-251 > 50 µM | MDA-MB-435 > 50 µM | SNB-19 > 50 µM | SN12C > 50 µM | SK-MEL-28 > 50 µM | SF-268 > 50 µM | ACHN > 50 µM | OVCAR-5 21.8 µM

O=[N+]([O-])c1ccc2nc(/C(=N/Nc3ccccc3)C(O)c3ccc(C(O)/C(=N\Nc4ccccc4)c4nc5ccc([N+](=O)[O-])cc5nc4O)cc3)cnc2c1 (centres undefined)
inactive: KM12 37.1 µM | COLO 205 > 100 µM | OVCAR-8 > 100 µM | SF-539 55.1 µM | MOLT-4 75.3 µM | A549 48.5 µM | SK-MEL-2 43.8 µM | NCI-H23 > 100 µM | SNB-19 > 100 µM | SN12C 44.1 µM | SK-MEL-28 > 100 µM | SF-268 > 100 µM | ACHN 18 µM | OVCAR-5 31.4 µM

O=C(Cc1ccc([N+](=O)[O-])cc1)OCC#CCOC(=O)Cc1ccc([N+](=O)[O-])cc1
inactive: KM12 > 10 µM | MDA-MB-231 > 10 µM | OVCAR-8 > 10 µM | SF-539 > 10 µM | MOLT-4 > 10 µM | A549 > 10 µM | SK-MEL-2 > 10 µM | NCI-H23 > 10 µM | U-251 > 10 µM | MDA-MB-435 > 10 µM | SNB-19 > 10 µM | SN12C > 10 µM | SF-268 > 10 µM | ACHN > 10 µM | OVCAR-5 > 10 µM

Cn1c2ccccc2n2c(N=O)c(-c3ccccc3)nc12
inactive: KM12 15.2 µM | DU-145 23.7 µM | MDA-MB-231 53.6 µM | COLO 205 10.2 µM | OVCAR-8 > 100 µM | MOLT-4 52.7 µM | A549 21.6 µM | SK-MEL-2 33.1 µM | NCI-H23 18.3 µM | U-251 49.8 µM | MDA-MB-435 38.8 µM | SNB-19 30.1 µM | SN12C 69.2 µM | SK-MEL-28 > 100 µM | SF-268 > 100 µM | ACHN > 100 µM | OVCAR-5 59.3 µM

c1csc(-c2cc(-c3ccsc3)cs2)c1
inactive: KM12 > 100 µM | DU-145 > 100 µM | MDA-MB-231 > 100 µM | COLO 205 > 100 µM | SF-539 35.4 µM | MOLT-4 87.1 µM | A549 44.8 µM | SK-MEL-2 98.6 µM | NCI-H23 14.9 µM | U-251 > 100 µM | MDA-MB-435 > 100 µM | SN12C > 100 µM | SK-MEL-28 > 100 µM | SF-268 > 100 µM | ACHN > 100 µM | OVCAR-5 63.1 µM

O=C(NCCNCCO)c1cccc2ccc(-c3ccccc3)nc12
inactive: KM12 5.68 µM | COLO 205 3.1 µM | OVCAR-8 4.42 µM | SF-539 3.63 µM | MOLT-4 1.54 µM | NCI-H226 4.46 µM | A549 2.93 µM | SK-MEL-2 7.74 µM | NCI-H23 4.68 µM | U-251 4.82 µM | SNB-19 6.49 µM | SN12C 3.97 µM | SK-MEL-28 10.4 µM | SF-268 6.53 µM | ACHN 2.26 µM | OVCAR-5 4.8 µM

CSc1nc(=O)c2nc(-c3cccs3)c(-c3cccs3)nc2n1C
inactive: KM12 > 100 µM | DU-145 34.3 µM | MDA-MB-231 97.7 µM | COLO 205 > 100 µM | OVCAR-8 29.3 µM | MOLT-4 > 100 µM | A549 44.8 µM | SK-MEL-2 49.2 µM | NCI-H23 55.8 µM | U-251 28.2 µM | MDA-MB-435 > 100 µM | SNB-19 29.8 µM | SN12C 43.6 µM | SK-MEL-28 43.1 µM | SF-268 37.2 µM | ACHN 37.7 µM | OVCAR-5 75.3 µM
